These results are taken from US20060057669A1, “Inactive transcription factor tif-ia and uses thereof” (priority 2002, published 2006).

One data set has as its system TIF-IA. Description: In vitro transcription assay of TIF-IA purified from treated HEK293T cells, in nuclear extracts from rapamycin-treated cells. The conditions noted are these: 1 hr; okadaic acid 1 μM or calyculin A 50 nM with rapamycin 20 nM. Format: biochemical. Here is the method: Nuclear extracts from rapamycin-treated cells were supplemented with 30 and 90 ng of TIF-IA that was immunopurified from HEK293T cells co-expressing FLAG-tagged TIF-IA and either GST/myc-tagged wild-type S6K1 (lanes 2-5) or S6K1E389ANAC (lanes 6-9).
B) Transcriptional activity of TIF-IA mutants in vitro. TIF-IA was purified from cells that were mock-treated (lanes 2, 3), or treated for 1 hr with either okadaic acid (1 μM), rapamycin (20 nM), calyculin A (50 nM), or both okadaic acid or calyculin A and rapamycin as indicated. 30 ng (even numbers) and 90 ng (odd numbers except 1) of TIF-IA were assayed for their capability to restore transcription of nuclear extracts from rapamycin-treated cells.
If S6K1 or S6K1-activated kinases were the only pathways that target TIF-IA and mediate mTOR-dependent regulation of Pol I transcription, then rapamycin should not inactivate TIF-IA if a rapamycin-resistant S6K1 mutant was co-expressed. This, however, was not the case.
Two mechanisms could be responsible for the decreased phosphorylation of S44 after rapamycin treatment, e.g., inhibition of the respective kinase or activation of a counteracting phosphatase. […] If PP2A dephosphorylates and thus inactivates TIF-IA, inhibition of PP2A should protect TIF-IA from inactivation by rapamycin. […]

Data set [1] has as its system HEK293T cells. The data set can be described thus: Trypan blue staining. The conditions noted are these: data not shown. The data set is classed as cell-based.
The test system of data set [2] is Pol I transcription. Description: In vitro transcription: TIF-IA mutants added to nuclear extract from exponentially growing FM3A cells. Format: biochemical, murine. The conditions noted are these: 20 and 40 ng added to 15 ug nuclear extract. Here is the method:
20 and 40 ng of the indicated TIF-IA mutants were added to 15 ug nuclear extract from exponentially growing FM3A cells and rDNA transcription was assayed.
(§1) Nuclear extracts were prepared from exponentially growing (8×10^5 cells/ml), density-arrested or PD98059-treated (CN Bioscience, Bad Soden, Germany) 40 μM, 0.5 hr) or rapamycin-treated FM3A cells (ATCC, Manassas, USA). 25 μl assays contained 50 ng of template DNA (pMr600/EcoRI), 30 μg nuclear extract proteins and 12 mM Hepes-KOH, [pH8.0], 0.1 mM EDTA, 5 mM MgCl2, 80 mM KCl, 10 mM creatine phosphate, 12% (v/v) glycerol, 0.66 mM each of ATP, GTP and CTP, 0.01 mM UTP and 0.5 μCi [α-^32P]UTP (5000 Ci/mmol). After incubation for 60 min at 30° C., RNA was extracted and analyzed on non-denaturing 5% polyacrylamide gels
Given that phosphorylation of TIF-IA at serine 649 is essential for transcription, excess of TIF-IAS649A should impair Pol I transcription. To test this, we examined the effect of exogenous wild-type and mutant TIF-IA on transcriptional activity of extracts from exponentially growing cells.

Data set [3] concerns HEK293T cells. The data set can be described thus: Images of transfected HEK293T cells. Format: cell-based. The conditions noted are these: images taken after 48 h. Here is the method: HEK293T cells were transfected with TIF-IA or TIFIAS649A, respectively, and images were taken after 48 h.
Data set [4] has as its system HEK293T cells. The data set can be described thus: Cell enumeration by dual-parameter flow cytometry. The conditions noted are these: 60 hr after transfection. The data set is classed as cell-based. Here is the method: (C) Cell enumeration by flow cytometry. HEK293T cells expressing wild-type TIF-IA or the S649 mutants were harvested 60 hours after transfection, stained with FITC-conjugated anti-FLAG M2 antibodies and analyzed by dual-parameter flow cytometry in a FACScan™ flow cytometer in the presence of CaliBRITE™ calibration beads. 60,000 events were recorded from each sample. The number of cells expressing FLAG-TIF-IA was calculated from the ratio between FITC-positive cells and counted beads.
HEK293T cells were harvested 60 hr after transfection with pcDNA-FLAG-TIF-IA, fixed with 2% paraformaldehyde and permeabilized with 0.1% Triton X-100 in PBS. […] Cell were analyzed with a FACSCan™ flow cytometer in the presence of CaliBRITE™ beads (Becton Dickinson, San Jose, USA). The number of cells expressing FLAG-TIF-IA was calculated from the ratio between FITC-positive cells and counted beads.
Given the functional significance of ERK/RSK-directed TIF-IA phosphorylation on Pol I transcription, mutations that enhance or abrogate TIF-IA activity may have a positive or negative effect on cell growth. […] The expression of TIF-IA was estimated on Western blots and the cellular growth rate was measured by calcein-AM staining. […] Thus, cellular calcein fluorescence correlates with the amount of viable cells. […]
In general terms: A flow cytometer gives signals particle by particle.

In data set [5] the test system is Pol I transcription. Description: In vitro transcription: TIF-IA mutants restoring rDNA transcription of nuclear extract from density-arrested FM3A cells. The data set is classed as biochemical, murine. The conditions noted are these: S633/S649 mutants; 20 and 40 ng. As for the experimental part:
(A) Transcriptional activity of TIF-IA mutants in vitro. FLAG-tagged wild-type TIF-IA and the indicated single or double point mutants were overexpressed in HEK293T cells, immunopurified, and 20 and 40 ng were assayed for their capability to restore rDNA transcriptional activity of nuclear extract from density-arrested FM3A cells. The amount and purity of TIF-IA were estimated on silver-stained SDS-polyacrylamide gels and Western blots (data not shown).
(A) Transcriptional activity of TIF-IAS199A and TIF-IAS199D in vitro. FLAG-tagged wild-type TIF-IA and the indicated mutants were immunopurified from HEK293T cells, and 30 and 60 ng were assayed for their capability to restore transcriptional activity of nuclear extract from density-arrested FM3A cells. The amount and purity of TIF-IA were estimated on silver-stained SDS-polyacrylamide gels (data not shown).
(B) Transcriptional activity of TIF-IAS44A in vitro. FLAG-tagged wild-type TIF-IA and the indicated mutant were assayed for their transcriptional activity in vitro.
as §1
TIF-IA was immunopurified from untransfected NIH3T3 cells or from HEK293T cells overexpressing FLAG-tagged TIF-IA. 4×10^6 cells were lysed in 0.8 ml IP buffer (20 mM Tris-HCl [pH 7.4], 200 mM NaCl, 2 mM EDTA, 2 mM EGTA, 1% Triton X-100, 0.5 mM PMSF, 1 μg/ml aprotinin, 5 μg/ml leupeptin and 1 μg/ml pepstatin A), centrifuged at 10,000 g for 30 min, and the supernatants were incubated for 4 hr at 4° C. with either 10 μg anti-TIF-IA antibodies bound to 20 μl protein G-agarose or with anti-FLAG (M2) agarose (Sigma-Aldrich Corp., Missouri, USA). The immunocomplexes were successively washed with buffer AM (20 mM Tris-HCl [pH 8.0], 5 mM MgCl2, 0.1 mM EDTA, 20% glycerol) containing 400 and 100 mM KCl, respectively. The amount and purity of TIF-IA was estimated on silver-stained polyacrylamide gels and similar amounts of bead-bound TIF-IA were used in in vitro transcription assays. GST fusion proteins were expressed in E. coli BL21(DE3) and purified on Glutathione-Sepharose 4B according to the manufacturer's instructions.
To assess the functional relevance of S633 and S649 phosphorylation on transcriptional activity, the respective S→A and S→D single or double point mutants were purified from transfected cells and assayed for their capability to rescue transcription of extracts from density-arrested cells. […] Thus, phosphorylation of TIF-IA at S649 and S633 is required for transcriptional activity.
Phosphorylation of peptide a should inhibit TIF-IA activity, while phosphorylation of peptide b, e.g. S44, should augment TIF-IA activity.

The subject of data set [6] is HEK293T cells. The data set can be described thus: Quantitative fluorimetric viability assay with calcein-AM. Format: cell-based. The conditions noted are these: 24, 36, 48 and 60 hr after transfection; 2 μM calcein-AM. As for the experimental part:
(B) Quantitative fluorimetric viability assay with calcein-AM. HEK293T cells were transfected with TIF-IA or the indicated point mutants. […] Viable cells were measured 24, 36, 48 and 60 hr after transfection by incubation with […] calcein-AM. The gradual increase in fluorescence intensity was recorded with a fluorescence multi-well plate reader for 20 min with an excitation wavelength of 485 nm and an emission wavelength of 530 nm. The proliferation rate of mock-transfected cells and cells overexpressing TIF-IA is shown at the left. Plots show the accumulation of calcein fluorescence (arbitrary units) against time. Growth rates calculated from linear regression curves are shown at the right. Values are presented as the mean±SD from three independent experiments performed in duplicates.
Conversion of calcein-AM (calcein acetoxymethyl ester, (CN Bioscience GmbH, Bad Soden, Germany) to calcein was used to measure cell proliferation. 12 hr after transfection, HEK293T cells were seeded to 96-well micro-plates at 1×10^4 cells/well. After 24, 36, 48 and 60 hr, cells were washed with PBS, incubated with 2 μM calcein-AM, and the gradual increase in fluorescence intensity within the cells was recorded by a fluorescence multi-well plate reader (CytoFluor Series 4000/TC, PerSeptive Biosystems, (Applied Biosystems, Forster City, USA) for 20 min in 1 min intervals. Excitation wavelength used for measurements of fluorescence was 485 nm with a bandwidth of 20 nm; emission wavelength was 530 nm with a bandwidth of 25 nm. Under the experimental conditions used, there is a direct correlation between the accumulation ratio of intracellular calcein fluorescence and the number of viable cells. The data from three independent experiments were analyzed by Sigmaplot and expressed as the mean±standard deviation. For statistical analysis, student's t test was used. Differences with a P<0.01 were considered statistically significant.
Given the functional significance of ERK/RSK-directed TIF-IA phosphorylation on Pol I transcription, mutations that enhance or abrogate TIF-IA activity may have a positive or negative effect on cell growth. To test this, HEK293T cells were transfected with cDNAs encoding wild-type or mutant TIF-IA which harbor single or double point mutations at S649 and S633. The expression of TIF-IA was estimated on Western blots and the cellular growth rate was measured by calcein-AM staining. Calcein-AM is a non-fluorescent, hydrophobic compound that is rapidly hydrolyzed by intracellular esterases releasing hydrophilic fluorescent calcein. Thus, cellular calcein fluorescence correlates with the amount of viable cells. […] Cells expressing FLAG-tagged wild-type or mutant TIF-IA were stained with FITC-conjugated anti-FLAG antibodies, identified by FACS and cell numbers were calculated by measuring the ratio of stained cells versus an internal standard. […] Conversely, the number of cells expressing TIF-IAS649A was 33% lower than the control. […] Taken together, the results reveal a striking correlation between phosphorylation of TIF-IA at serine 649, cellular rRNA synthetic activity and cell cycle progression.

Data set [7] concerns HEK293T cells. Description: Relative DNA content of sorted cells by FACS analysis. The data set is classed as cell-based. As for the experimental part: HEK293T cells were harvested 60 hr after transfection with pcDNA-FLAG-TIF-IA, fixed with 2% paraformaldehyde and permeabilized with 0.1% Triton X-100 in PBS. Transfected cells were labeled by incubation for 1 hr with 2 μg/ml FITC-conjugated anti-M2 antibodies (Sigma) and subsequently stained with […] propidium iodide (Sigma). Cell were analyzed with a FACSCan™ flow cytometer in the presence of CaliBRITE™ beads (Becton Dickinson, San Jose, USA). The number of cells expressing FLAG-TIF-IA was calculated from the ratio between FITC-positive cells and counted beads.
Given the functional significance of ERK/RSK-directed TIF-IA phosphorylation on Pol I transcription, mutations that enhance or abrogate TIF-IA activity may have a positive or negative effect on cell growth. To test this, HEK293T cells were transfected with cDNAs encoding wild-type or mutant TIF-IA which harbor single or double point mutations at S649 and S633. The expression of TIF-IA was estimated on Western blots and the cellular growth rate was measured by calcein-AM staining. […] Thus, cellular calcein fluorescence correlates with the amount of viable cells. […] Cells expressing FLAG-tagged wild-type or mutant TIF-IA were stained with FITC-conjugated anti-FLAG antibodies, identified by FACS and cell numbers were calculated by measuring the ratio of stained cells versus an internal standard. […]

In the case of `COC[C@@H]([C@H](O)[C@H](O)C(=O)NCC[C@H](C)c1nc(/C=C/C[C@@H]2O[C@]3(C[C@@H](O)[C@@H]2C)O[C@H]([C@H](C[C@H](O)[C@H](C)[C@H](O)[C@H](C)/C=C(C)/C(C)=C/C=C/C(C)=C\C#N)OC)[C@H](OP(=O)(O)O)C3(C)C)co1)N(C)C` [calyculin A], in the data set on TIF-IA, the “effect on inactivation of TIF-IA by rapamycin” value is “prevented inactivation of TIF-IA by rapamycin”.

Turning to `C=C1[C@@H](O)[C@@H]2O[C@]3(CC[C@H](/C=C/[C@@H](C)[C@@H]4CC(C)=C[C@@]5(O[C@H](C[C@@](C)(O)C(=O)O)CC[C@H]5O)O4)O3)CC[C@H]2O[C@@H]1[C@@H](O)C[C@H](C)[C@H]1O[C@@]2(CCCCO2)CC[C@H]1C` [okadaic acid], in the data set on TIF-IA, the “effect on inactivation of TIF-IA by rapamycin” value was “prevented inactivation of TIF-IA by rapamycin”.

Take “TIF-IAS649A: TIF-IA point mutant, serine residue at position 649 replaced by an alanine residue”: the “cell viability as cause of growth inhibition” value in the data set with HEK293T cells [1] is “not due to decreased cell viability”. In addition, the “effect on transcriptional activity of extracts from exponentially growing cells” value in the data set with Pol I transcription [2] was “acts as a dominant-negative inhibitor of Pol I transcription”; with Pol I transcription [2] (listed as S649A), “suppressed transcription well below the basal level”. Also, the “cell growth on images” value in the data set with HEK293T cells [3] is recorded as “retards cell growth”. In addition, the “number of cells lower than the control” value in the data set with HEK293T cells [4] was determined as 33%. Besides, the “capability to rescue transcription of extracts from density-arrested cells” value with Pol I transcription [5] is “abolished TIF-IA activity”. The “cellular growth rate by calcein-AM staining” value in the data set with HEK293T cells [6] is recorded as “impaired cell growth”. Besides, the “decrease of G2/M-phase cells” value in the data set on HEK293T cells [7] is 25%.
